According to ChEMBL document CHEMBL1201862, “PubChem BioAssay data set” (2004):
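Growth conditions: 96-well plates. Treatment: test compound, 48 hours, 5 concentrations. Analysis: linear interpolation between bracketing concentrations; unreached endpoints set to highest concentration. Here, GI50 denotes the concentration required for 50% inhibition of growth.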 Active and inactive are the calls of the source. No stated cut-off is given here; in the data, active = GI50 up to about 1.1 µM and inactive = higher.

Assays:
Assay in all cases: DTP human tumour cell line panel, 48 h
[1] = tested on: SF-268
[2] = tested on: OVCAR-8
[3] = tested on: OVCAR-3
[4] = tested on: SK-MEL-5
[5] = tested on: T47D
[6] = tested on: NCI-H460
[7] = tested on: CCRF-CEM
[8] = tested on: HL-60
[9] = tested on: SNB-19
[10] = tested on: SW-620
[11] = tested on: K562
[12] = tested on: EKVX
[13] = tested on: RXF 393
[14] = tested on: SK-OV-3
[15] = tested on: SR
[16] = tested on: A549
[17] = tested on: SF-295
[18] = tested on: MDA-MB-231
[19] = tested on: A498
[20] = tested on: Hs-578T

Structure (SMILES)	GI50 [1]	GI50 [2]	GI50 [3]	GI50 [4]	GI50 [5]	GI50 [6]	GI50 [7]	GI50 [8]	GI50 [9]	GI50 [10]	GI50 [11]	GI50 [12]	GI50 [13]	GI50 [14]	GI50 [15]	GI50 [16]	GI50 [17]	GI50 [18]	GI50 [19]	GI50 [20]
C#Cc1cc(-c2nc3ccccc3s2)ccc1N	25.8 µM (inactive)	29.2 µM (inactive)	16.8 µM (inactive)	26.6 µM (inactive)	14.5 µM (inactive)	16.5 µM (inactive)	23.3 µM (inactive)	24.7 µM (inactive)	20 µM (inactive)	34.6 µM (inactive)	25.3 µM (inactive)	19.1 µM (inactive)	25.8 µM (inactive)	26.4 µM (inactive)	25.1 µM (inactive)	16.3 µM (inactive)	20 µM (inactive)			
CCOc1cc2c(cc1O)/C(=N\OC)C[C@@H]1[C@@H]2CC[C@]2(C)[C@@H](O)CC[C@@H]12	0.625 µM (active)	0.217 µM (active)	< 0.0205 µM (active)	< 0.0253 µM (active)		0.308 µM (active)	0.299 µM (active)	0.00548 µM (active)	2.11 µM (inactive)	0.212 µM (active)	0.0596 µM (active)	10.8 µM (inactive)	< 0.01 µM (active)	0.243 µM (active)	0.0127 µM (active)	0.542 µM (active)		0.685 µM (active)	0.0908 µM (active)	0.0698 µM (active)
CN(C(=O)C1(C(=O)C=[N+]=[N-])CC1)c1ccccc1	> 100 µM (inactive)	> 100 µM (inactive)	> 100 µM (inactive)	> 100 µM (inactive)		> 100 µM (inactive)	> 100 µM (inactive)	> 100 µM (inactive)	> 100 µM (inactive)	> 100 µM (inactive)	> 100 µM (inactive)	> 100 µM (inactive)	> 100 µM (inactive)		> 100 µM (inactive)	> 100 µM (inactive)	> 100 µM (inactive)	> 100 µM (inactive)		> 100 µM (inactive)
O=C(Nc1ccc(Sc2ccc(/N=N/c3c(O)c(S(=O)(=O)O)cc4cc(S(=O)(=O)O)ccc34)cc2)cc1)c1ccc(/N=N/c2c(O)c(S(=O)(=O)O)cc3cc(S(=O)(=O)O)ccc23)cc1	38.7 µM (inactive)	21 µM (inactive)	15.8 µM (inactive)	13.5 µM (inactive)		14.5 µM (inactive)	21.2 µM (inactive)	6.97 µM (inactive)	48.3 µM (inactive)	28.3 µM (inactive)	19.4 µM (inactive)	17.7 µM (inactive)	33.1 µM (inactive)	> 100 µM (inactive)	10.9 µM (inactive)	26.7 µM (inactive)	22.3 µM (inactive)		45.2 µM (inactive)	
COc1cccc2c1OC1c3ccccc3OCC1(O)C2 (stereo not drawn)	> 100 µM (inactive)	> 100 µM (inactive)	> 100 µM (inactive)	> 100 µM (inactive)	> 100 µM (inactive)		> 100 µM (inactive)			> 100 µM (inactive)	> 100 µM (inactive)	> 100 µM (inactive)		> 100 µM (inactive)		> 100 µM (inactive)	> 100 µM (inactive)	> 100 µM (inactive)	> 100 µM (inactive)	
CCOC(=O)C(C(=O)OCC)=C1NC2(c3ccccc3Nc3ccc(C)cc32)C(C(=O)OC)S1 (stereo not drawn)	12.3 µM (inactive)	29.4 µM (inactive)	23.1 µM (inactive)	13.9 µM (inactive)	3.96 µM (inactive)	12.1 µM (inactive)	15.1 µM (inactive)	20 µM (inactive)	55.3 µM (inactive)	48.6 µM (inactive)	18.4 µM (inactive)	8.36 µM (inactive)	7.18 µM (inactive)	> 100 µM (inactive)	6.34 µM (inactive)	13.7 µM (inactive)	10.8 µM (inactive)		10.1 µM (inactive)	10.3 µM (inactive)
CC(=O)/C(=C/NC(=S)N/N=C1\C(=O)Nc2ccccc21)C(=O)Nc1ccccc1C	> 100 µM (inactive)	> 100 µM (inactive)	75.2 µM (inactive)	65.3 µM (inactive)	27.5 µM (inactive)	> 100 µM (inactive)		41 µM (inactive)	> 100 µM (inactive)	> 100 µM (inactive)		70.6 µM (inactive)	83.8 µM (inactive)	> 100 µM (inactive)		> 100 µM (inactive)	> 100 µM (inactive)	91.6 µM (inactive)	57.7 µM (inactive)	
O=C(/C=C/c1ccc(O)cc1)c1cc(Cl)ccc1O	42.8 µM (inactive)	39.4 µM (inactive)	28.2 µM (inactive)	37.2 µM (inactive)		50.2 µM (inactive)	6.32 µM (inactive)	17.8 µM (inactive)	44.9 µM (inactive)	35.4 µM (inactive)	24.1 µM (inactive)	86.3 µM (inactive)	28.9 µM (inactive)	> 100 µM (inactive)	16.9 µM (inactive)	39.9 µM (inactive)	35.2 µM (inactive)		> 100 µM (inactive)	
CN(C)CCNC(=O)c1cccc2c(NC(CCC(N)=O)C(=O)O)c3ccccc3nc12 (stereo not drawn)	5.14 µM (inactive)	9.18 µM (inactive)	12.6 µM (inactive)	10.6 µM (inactive)		11.1 µM (inactive)	18.5 µM (inactive)		3.49 µM (inactive)	4.55 µM (inactive)	4.4 µM (inactive)	14.5 µM (inactive)		9.95 µM (inactive)	> 100 µM (inactive)	5.08 µM (inactive)	5.64 µM (inactive)	7.66 µM (inactive)	16.2 µM (inactive)	
COC(=O)C1C(O)C(C(=O)OC)C(C)N(C)C1C (stereo not drawn)		> 100 µM (inactive)	> 100 µM (inactive)	> 100 µM (inactive)		> 100 µM (inactive)	> 100 µM (inactive)	> 100 µM (inactive)	> 100 µM (inactive)	> 100 µM (inactive)	> 100 µM (inactive)	> 100 µM (inactive)	> 100 µM (inactive)	> 100 µM (inactive)	> 100 µM (inactive)	> 100 µM (inactive)	> 100 µM (inactive)	> 100 µM (inactive)	> 100 µM (inactive)	
CSc1nsc(-c2ccccc2)[s+]1.[O-][Cl+3]([O-])([O-])[O-]	> 100 µM (inactive)	> 100 µM (inactive)	> 100 µM (inactive)	> 100 µM (inactive)		> 100 µM (inactive)	> 100 µM (inactive)	72.1 µM (inactive)	> 100 µM (inactive)	> 100 µM (inactive)	64.1 µM (inactive)	> 100 µM (inactive)	> 100 µM (inactive)	> 100 µM (inactive)	> 100 µM (inactive)	> 100 µM (inactive)			> 100 µM (inactive)	
CN1B(c2ccccc2)N(C)C(=O)N(C)C1=O	> 100 µM (inactive)	> 100 µM (inactive)		> 100 µM (inactive)	> 100 µM (inactive)	> 100 µM (inactive)	> 100 µM (inactive)	> 100 µM (inactive)	> 100 µM (inactive)	> 100 µM (inactive)	> 100 µM (inactive)	> 100 µM (inactive)	> 100 µM (inactive)	> 100 µM (inactive)		> 100 µM (inactive)	> 100 µM (inactive)			81.3 µM (inactive)
CC(NC(=O)C(N)Cc1ccc(O)cn1)C(=O)O (stereo not drawn)	> 100 µM (inactive)	> 100 µM (inactive)	> 100 µM (inactive)	> 100 µM (inactive)		> 100 µM (inactive)	> 100 µM (inactive)	> 100 µM (inactive)	> 100 µM (inactive)	> 100 µM (inactive)	> 100 µM (inactive)	> 100 µM (inactive)	> 100 µM (inactive)		> 100 µM (inactive)	> 100 µM (inactive)	> 100 µM (inactive)	> 100 µM (inactive)	> 100 µM (inactive)	> 100 µM (inactive)
Cc1cc(N(CCC#N)CCC#N)ccc1/C=C1N=C(/C=C\c2ccccc2)OC\1=O	> 100 µM (inactive)	> 100 µM (inactive)	> 100 µM (inactive)	> 100 µM (inactive)		> 100 µM (inactive)	> 100 µM (inactive)	> 100 µM (inactive)	> 100 µM (inactive)	> 100 µM (inactive)	> 100 µM (inactive)	> 100 µM (inactive)	> 100 µM (inactive)	> 100 µM (inactive)	30.3 µM (inactive)	> 100 µM (inactive)	> 100 µM (inactive)		> 100 µM (inactive)	
CCOC(=O)C1=c2[nH]c3cccc4cccc(c43)n2C(=O)CC1		56.5 µM (inactive)	> 100 µM (inactive)	65.3 µM (inactive)	22.5 µM (inactive)	> 100 µM (inactive)	24.3 µM (inactive)	17.3 µM (inactive)	> 100 µM (inactive)	29 µM (inactive)	> 100 µM (inactive)	> 100 µM (inactive)	> 100 µM (inactive)	> 100 µM (inactive)	> 100 µM (inactive)	> 100 µM (inactive)	> 100 µM (inactive)		> 100 µM (inactive)	
O=C(O)c1ccc(Nc2nc3cc(C(F)(F)F)ccc3nc2C(=O)O)cc1	93.3 µM (inactive)	> 100 µM (inactive)	> 100 µM (inactive)	> 100 µM (inactive)		> 100 µM (inactive)		> 100 µM (inactive)	> 100 µM (inactive)	> 100 µM (inactive)	> 100 µM (inactive)	> 100 µM (inactive)	> 100 µM (inactive)		> 100 µM (inactive)		> 100 µM (inactive)	> 100 µM (inactive)	> 100 µM (inactive)	> 100 µM (inactive)
